Assay: UVA-induced photon emission (chemiluminescence, ICL-H) of permanently waved hair tresses after treatment with rinse-off formulation
Design: species or system human
Conditions: Example 1; for UVA-induced photon emission (chemiluminescence), measure of hair damage: measured two days after treatment, damage by permanent wave alone 555%
Method: The effect of taurinamide hydrochloride on the regeneration of permanently waved hair was investigated. For this, three tresses of European hair (left natural, dense, color 7.0; Kerling) were subjected to a permanent wave treatment. The permanent wave solution had the following composition:
The tresses were washed for 1 min in a shaking machine (13.5% Texapon K12P in demineralized water) and rinsed for 2 minutes with lukewarm water. The tresses were saturated with permanent waving solution until drop-wet (10 ml for 3 tresses). After a contact time of 30 minutes, they were rinsed for 3 minutes with lukewarm water. The treatment with the permanent waving solution was repeated three times. The drop-wet tresses were then saturated with neutralizing solution (10 ml for 3 tresses). After a contact time of 10 minutes, they were rinsed for 3 minutes with lukewarm water.
To determine the effect of taurinamide, the following rinse-off formulations which comprised varying amounts of taurinamide hydrochloride were used:
The formulations were applied to the tresses from both sides using a paint brush on a glass plate (30 g for 3 tresses). After a contact time of 10 minutes, they were rinsed for 3 minutes with lukewarm water. The hair was then left to dry in the air.
Two days after the treatment, the UVA-induced photon emission (chemiluminescence) was measured. The photon emission is a measure of the hair damage. It was measured in accordance with the method described by S. Benard, H. Nerenz, M. Rohr and A. Schrader in IFSCC magazine Vol. 4 (2001), 185-189 (ICL-H (Induced Chemiluminescence of Human Hair) A new method for quantitative analysis of hair stress).

Cl.NCCS(N)(=O)=O [Taurinamide, taurinamide hydrochloride]
UVA-induced photon emission (chemiluminescence), measure of hair damage (0.1% by wt. taurinamide HCl rinse-off formulation 1.1, 10 min contact): 329% | UVA-induced photon emission (chemiluminescence), measure of hair damage (0.5% by wt. taurinamide HCl rinse-off formulation 1.2, 10 min contact): 209% | UVA-induced photon emission (chemiluminescence), measure of hair damage (1% by wt. taurinamide HCl rinse-off formulation 1.3, 10 min contact): 185% | UVA-induced photon emission (chemiluminescence), measure of hair damage (5% by wt. taurinamide HCl rinse-off formulation 1.4, 10 min contact): 118% | effect of treatment on hair damage (in words) (permanently waved hair, 0.1-5% taurinamide formulations): significantly reduces hair damage
